The results in this text go back to patent US20160045505A1, “COMPOUNDS AND COMPOSITIONS FOR THE TREATMENT OF PARASITIC DISEASES” (NOVARTIS AG, priority 2013, published 2016).

What is called EC50 is the concentration giving half of the maximal effect.

Experiment [1] has as its system Leishmania donovani axenic amastigote parasites. Kind of experiment: Leishmania donovani axenic amastigote proliferation assay (Cell TiterGlo luminescence, 2 day incubation). It is filed as cell-based. Particulars: Leishmania donovani, read-out: L. donovani amastigotes EC50. For orientation: Cellular ATP, detected with luciferase, serves as a proxy for viable cell number.

The test system of experiment [2] is L. donovani HU3 strain in mouse peritoneal macrophages. Kind of experiment: Assay for proliferation of Leishmania parasites in infected mouse peritoneal macrophages (SybrGreen staining, high-content imaging, 5 days). Conditions: Leishmania donovani, Peritoneal macrophage, L. donovani in mouse peritoneal macrophages, read-out: L. donovani Macrophage EC50. It is filed as cell-based, Leishmania donovani.

Experiment [3] has as its system Trypanosoma cruzi amastigotes (Tulahuen strain expressing Lac-Z) cultured in 3T3 fibroblast cells. As to the kind of experiment: microbe, parasite or virus in culture. The experiment is classed as cell-based. Conditions: Trypanosoma cruzi, TULAHUEN, Fibroblast, T. cruzi amastigotes in 3T3 fibroblast cells, read-out: T cruzi EC50.
Setting [4] is: axenic amastigotes, inhibition of proliferation.

Structures are written as SMILES. Like-named read-outs stand apart in the source and are kept apart here.

Take `CC(C)OC(=O)Nc1cnc2nc(-c3cc(NC(=O)N4CC(N(C)C(=O)OC(C)(C)C)C4)ccc3F)cn2c1` [Compound 293]: the figures for the EC50 in experiment [1] (setting [4]), in experiment [2] (inhibition of proliferation) and in experiment [3] (inhibition of proliferation) were more than 25000 nM, more than 38200 nM and more than 16500 nM, respectively.
For `CC(C)OC(=O)Nc1cnc2nc(-c3cc(NC(=O)N4CC5(COC5)C4)ccc3F)cn2c1` [Compound 294], the concentration giving a half-maximal response (EC50) is more than 25000 nM in experiment [1] (setting [4]), more than 44900 nM in experiment [2] (inhibition of proliferation) and more than 20000 nM in experiment [3] (inhibition of proliferation).
The corresponding values for `CC(C)OC(=O)Nc1ccc(F)c(-c2cn3cc(NC(=O)OC(C)C)cnc3n2)c1` [Compound 302] are 305 nM, 587 nM and 134 nM.
For the compound `COCCOC(=O)Nc1ccc(F)c(-c2cn3cc(NC(=O)OC(C)C)cnc3n2)c1` [Compound 303], the concentration for a half-maximal effect (EC50) in experiment [1] (setting [4]) was more than 20300 nM; in experiment [2] (inhibition of proliferation), more than 50000 nM; in experiment [3] (inhibition of proliferation), 17700 nM.
`O=C(Nc1ccc(F)c(-c2cn3cc(-c4ccccc4)cnc3n2)c1)N1CCC1` [Compound 321]: the EC50 in experiment [1] (setting [4]) is 8 nM; in experiment [2] (inhibition of proliferation), 15 nM; in experiment [3] (inhibition of proliferation) it was 5 nM.
With `CN(CC(F)(F)F)C(=O)Nc1ccc(F)c(-c2cn3cc(C4=CCOCC4)cnc3n2)c1` [Compound 326], the EC50 is 158 nM in experiment [1] (setting [4]), 496 nM in experiment [2] (inhibition of proliferation) and 123 nM in experiment [3] (inhibition of proliferation).
As for `Cc1nc(C)c(C(=O)Nc2ccc(F)c(-c3cn4cc(-c5ccccc5)cnc4n3)c2)o1` [Compound 333], the results for the EC50 in experiment [1] (setting [4]), in experiment [2] (inhibition of proliferation) and in experiment [3] (inhibition of proliferation) were 88 nM, 87 nM and 16 nM, respectively.
The corresponding values for `Cc1nc(C)c(C(=O)Nc2ccc(F)c(-c3cn4cc(C5=CCOCC5)cnc4n3)c2)o1` [Compound 334] are 52 nM, 85 nM and 64 nM.
`CC(C)(C)OC(=O)N1CC=C(c2cnc3nc(-c4cc(NC(=O)N5CCCC5)ccc4Cl)cn3c2)CC1` [Compound 343, tert-butyl 4-(2-(2-chloro-5-(pyrrolidine-1-carboxamido)phenyl)imidazo[1,2-a]pyrimidin-6-yl)-5,6-dihydropyridine-1(2H)-carboxylate]: the values for the EC50 in experiment [1] (setting [4]), in experiment [2] (inhibition of proliferation) and in experiment [3] (inhibition of proliferation) were 106 nM, 308 nM and 74 nM, respectively.
As for `C[Si](C)(C)CCOCn1cnc(-c2cnc3nc(-c4cc(NC(=O)N5CCCC5)ccc4Cl)cn3c2)c1` [Compound 344], the EC50 in experiment [1] (setting [4]) was found to be 73 nM; in experiment [2] (inhibition of proliferation), 158 nM; in experiment [3] (inhibition of proliferation) it was 51 nM.
Turning to `C=C(c1ccccc1)c1cnc2nc(-c3cc(NC(=O)c4oc(C)nc4C)ccc3F)cn2c1` [Compound 346], the EC50 was found to be 355 nM in experiment [1] (setting [4]), 490 nM in experiment [2] (inhibition of proliferation) and 159 nM in experiment [3] (inhibition of proliferation).
Take `Cc1nc(C)c(C(=O)Nc2ccc(F)c(-c3cn4cc(C5=CCN(C(=O)OC(C)(C)C)CC5)cnc4n3)c2)o1` [Compound 347]: the half-maximal effective concentration (EC50) came to 154 nM in experiment [1] (setting [4]), 151 nM in experiment [2] (inhibition of proliferation) and 99 nM in experiment [3] (inhibition of proliferation).
Take `CNc1ccc(-c2cnc3nc(-c4cc(NC(=O)N5CCCC5)ccc4F)cn3c2)cc1` [Compound 351]: the EC50 in experiment [1] (setting [4]) turned out to be 71 nM; in experiment [2] (inhibition of proliferation) it was 130 nM; in experiment [3] (inhibition of proliferation), 95 nM.
As for `O=C(Nc1ccc(F)c(-c2cn3cc(-c4ccc(CCN5CCOCC5)cc4)cnc3n2)c1)N1CCCC1` [Compound 352], the concentration for a half-maximal effect (EC50) in experiment [1] (setting [4]) turned out to be 215 nM; in experiment [2] (inhibition of proliferation) it was 61 nM; in experiment [3] (inhibition of proliferation), 18 nM.
As for `O=C(Nc1ccc(F)c(-c2cn3cc(C4=CCOCC4)cnc3n2)c1)N1CCCC1` [Compound 353], the EC50 in experiment [1] (setting [4]) turned out to be 51 nM; in experiment [2] (inhibition of proliferation), 112 nM; in experiment [3] (inhibition of proliferation) it was 53 nM.
On to `O=C(Nc1ccc(F)c(-c2cn3cc(-c4ccccc4Cl)cnc3n2)c1)N1CCCC1` [Compound 357], for which the values for the 50% effective concentration (EC50) in experiment [1] (setting [4]), in experiment [2] (inhibition of proliferation) and in experiment [3] (inhibition of proliferation) were 88 nM, 194 nM and 15 nM, respectively.
The corresponding values for `O=C(Nc1ccc(F)c(-c2cn3cc(-c4ccccc4)cnc3n2)c1)N1CCCC1` [Compound 358] are 30 nM, 148 nM and 12 nM.
Regarding `Cc1nc(C)c(C(=O)Nc2ccc(F)c(-c3cn4cc(C5=CCN(C)CC5)cnc4n3)c2)o1` [Compound 361], the concentration for a half-maximal effect (EC50) in experiment [1] (setting [4]) is 7930 nM; in experiment [2] (inhibition of proliferation), 993 nM; in experiment [3] (inhibition of proliferation) it was 1040 nM.
As for `CCn1nccc1-c1cnc2nc(-c3cc(NC(=O)c4oc(C)nc4C)ccc3F)cn2c1` [Compound 387], the figures for the half-maximal effective concentration (EC50) in experiment [1] (L. donovani axenic amastigotes), in experiment [2] and in experiment [3] were 86 nM, 286 nM and 149 nM, respectively.
Take `Cc1nc(C)c(C(=O)Nc2ccc(F)c(-c3cn4cc(-c5ccccn5)cnc4n3)c2)o1` [Compound 394]: the 50% effective concentration (EC50) in experiment [1] (L. donovani axenic amastigotes) was 80 nM; in experiment [2] it was 107 nM; in experiment [3], more than 20000 nM.
The corresponding values for `O=C(Nc1ccc(F)c(-c2cn3cc(-c4ccccn4)cnc3n2)c1)N1CC(F)C1` [Compound 400] are 45 nM, 203 nM and 199 nM.
Take `O=C(Nc1ccc(F)c(-c2cn3cc(-c4ccccn4)cnc3n2)c1)N1CCC1` [Compound 404]: the EC50 in experiment [1] (L. donovani axenic amastigotes) is 11 nM; in experiment [2], 34 nM; in experiment [3], 17 nM.
In the case of `O=C(Nc1ccc(F)c(-c2cn3cc(C4CCOCC4)cnc3n2)c1)N1CCCC1` [Compound 419], the EC50 in experiment [1] (L. donovani axenic amastigotes) was 77 nM; in experiment [2], 182 nM; in experiment [3], 114 nM.
The corresponding values for `Cc1nc(C)c(C(=O)Nc2ccc(F)c(-c3cn4cc(C5CCOCC5)cnc4n3)c2)o1` [Compound 421] are 127 nM, 337 nM and 170 nM.
The corresponding values for `Cc1nc(C)c(C(=O)Nc2ccc(F)c(-c3cn4cc(-c5nc(C)c(C)s5)cnc4n3)c2)o1` [Compound 457, N-(3-(6-(4,5-dimethylthiazol-2-yl)imidazo[1,2-a]pyrimidin-2-yl)-4-fluorophenyl)-2,4-dimethyloxazole-5-carboxamide] are 162 nM, 13200 nM and 320 nM.
The corresponding values for `COc1cccnc1-c1cnc2nc(-c3cc(NC(=O)c4oc(C)nc4C)ccc3F)cn2c1` [Compound 459] are 129 nM, 347 nM and 119 nM.
For the compound `Cc1nc(C)c(C(=O)Nc2ccc(F)c(-c3cn4cc(NC(C)C)cnc4n3)c2)o1` [Compound 481], the EC50 in experiment [1] (L. donovani axenic amastigotes) is 209 nM; in experiment [2] it was 430 nM; in experiment [3], 151 nM.
The corresponding values for `CC(C)OC(=O)Nc1cnc2nc(-c3cc(Nc4cccnc4)ccc3F)cn2c1` [Compound 486] are 16100 nM, more than 50000 nM and 1450 nM.
As to `Cc1nc(C)c(C(=O)Nc2ccc(F)c(-c3cn4cc(N5CCOCC5)cnc4n3)c2)o1` [Compound 490], the EC50 in experiment [1] (L. donovani axenic amastigotes) was 134 nM; in experiment [2], 383 nM; in experiment [3], 157 nM.
Consider `COCCNc1cnc2nc(-c3cc(NC(=O)N4CCCC4)ccc3Cl)cn2c1` [Compound 496], for which the values for the 50% effective concentration (EC50) in experiment [1] (L. donovani axenic amastigotes), in experiment [2] and in experiment [3] were 2060 nM, 8850 nM and 2120 nM, respectively.
Consider `Cc1nc(C)c(C(=O)Nc2ccc(F)c(-c3cn4cc(NC5=NCCN5C)cnc4n3)c2)o1` [Compound 506], for which the EC50 in experiment [1] (L. donovani axenic amastigotes) is more than 25000 nM; in experiment [2], more than 26000 nM; in experiment [3], more than 18200 nM.
